Data taken from patent US7939554B2, “Protein phosphatase inhibitors” (The Cleveland Clinic Foundation, priority 2006, dated 2011).

Key:
PTPase CD45 = molecular target: T1, PTPase CD45 (Homo sapiens, UniProt P08575); assay: pLck-pY505 levels in L5-treated Jurkat cells; format: cell-based; details: FIG. 4D
T1 construct: endogenous in cells; host or cells: Jurkat
T1 sequence (P08575 26-1306): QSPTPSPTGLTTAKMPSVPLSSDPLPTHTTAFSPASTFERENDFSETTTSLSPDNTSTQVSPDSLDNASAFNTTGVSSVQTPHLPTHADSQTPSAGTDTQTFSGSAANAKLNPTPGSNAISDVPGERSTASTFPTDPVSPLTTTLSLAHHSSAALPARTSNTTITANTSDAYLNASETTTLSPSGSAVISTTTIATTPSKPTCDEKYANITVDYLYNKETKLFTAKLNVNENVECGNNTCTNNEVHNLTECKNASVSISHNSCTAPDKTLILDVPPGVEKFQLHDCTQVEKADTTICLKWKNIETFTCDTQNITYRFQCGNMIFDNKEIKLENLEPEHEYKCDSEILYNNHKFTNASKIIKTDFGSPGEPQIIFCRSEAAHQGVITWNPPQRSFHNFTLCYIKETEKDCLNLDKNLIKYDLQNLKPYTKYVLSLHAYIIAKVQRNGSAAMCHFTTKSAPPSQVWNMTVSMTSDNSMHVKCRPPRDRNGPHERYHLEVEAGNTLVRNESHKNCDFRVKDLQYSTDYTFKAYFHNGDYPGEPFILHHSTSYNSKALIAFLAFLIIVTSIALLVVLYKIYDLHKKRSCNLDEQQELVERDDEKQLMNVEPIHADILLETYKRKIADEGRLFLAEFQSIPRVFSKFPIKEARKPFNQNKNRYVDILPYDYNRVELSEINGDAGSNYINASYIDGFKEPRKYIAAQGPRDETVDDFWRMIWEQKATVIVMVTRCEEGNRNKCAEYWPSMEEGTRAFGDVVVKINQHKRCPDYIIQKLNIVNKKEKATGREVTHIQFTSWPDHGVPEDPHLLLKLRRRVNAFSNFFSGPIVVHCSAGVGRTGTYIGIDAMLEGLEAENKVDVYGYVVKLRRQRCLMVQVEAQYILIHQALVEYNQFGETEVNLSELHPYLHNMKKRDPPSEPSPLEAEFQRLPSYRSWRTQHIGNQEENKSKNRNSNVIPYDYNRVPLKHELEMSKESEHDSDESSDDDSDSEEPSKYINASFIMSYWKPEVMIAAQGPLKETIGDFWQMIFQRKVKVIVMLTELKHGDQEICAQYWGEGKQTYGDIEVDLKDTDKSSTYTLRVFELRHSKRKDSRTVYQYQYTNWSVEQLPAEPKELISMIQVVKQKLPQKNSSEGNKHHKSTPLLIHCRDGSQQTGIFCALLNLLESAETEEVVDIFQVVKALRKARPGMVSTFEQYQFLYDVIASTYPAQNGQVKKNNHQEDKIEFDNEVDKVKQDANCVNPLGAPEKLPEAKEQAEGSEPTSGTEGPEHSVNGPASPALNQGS
Protocol: Jurkat cells in culture medium (3×10^6 cells/ml, 1 ml/tube) were treated with agents for designated times at room temperature. After brief centrifuging in a microfuge (4,000 rpm, 2 min), the cell pellet was lysed on ice for 30 min in […] of cold lysis buffer (1% NP40, 50 mM Tris, pH 7.4, 150 mM NaCl, 20 mM NaF, 0.2 mM Na3VO4 and 1 mM Na3MO4) containing a cocktail of proteinase inhibitors (Sigma, 1 tablet/10 ml). The lysates were cleared by centrifuging (14,000 rpm, 10 min) in a microfuge at 4° C. to remove insoluble parts, mixed with equal volume of 2×SDS-PAGE sample buffer, boiled for 5 min and analyzed (˜3×10^5 cells/well) by SDS-PAGE/Western blotting. Relative intensities of phosphotyrosine bands were quantified through densitometry analysis.
To assess the effects of L5 on other phosphatases, pERK1/2 and pLck-pY505 in L5-treated Jurkat cells were quantified. SHP-2 is known to be a positive mediator of pERK1/2 whereas pLck-pY505 is dephosphorylated by PTPase CD45.

[1] = test system: spleen pLck and IFNγ+ cells; assay: in vivo induction of spleen pLck and IFNγ+ cells in mice; set-up: species or system mouse
Protocol: Spleens were harvested one hour post-treatment on day 4 and processed into splenocytes, which were used for assessing pLck levels by SDS-PAGE/Western blotting and for quantification of IFNγ+ cells by ELISPOT assays. Mice were also treated with L5 (˜10 mg/kg body weight, daily, s. c., n=2) to evaluate the toxicity of the compounds in vivo.

[2] = ~3 mg/kg body weight, s.c., daily, 4 days

O=C1C=CC(=O)C(c2cc(Cl)ccc2Cl)=C1 [L5]
effect on pLck-pY505 (PTPase CD45): little effects
effect on splenocyte pLck in treated mice ([1]; 1 mg/kg of body weight): minor effect
spleen IFNγ+ cells increase in treated mice [1, 2]: approximately 3 fold
splenocyte pLck increase in treated mice [1, 2]: ~3.3 fold
